# Data: patent US9402878B2, “Depsipeptide and uses thereof” (priority 2012, dated 2016)
# Assays:
# [1] = test system: Staphylococcus aureus MRSA; assay: MIC against contemporary clinical isolates; details: for % S (CLSI % susceptible) / MIC Range: MRSA (n = 20); for MIC50 / MIC90: Staphylococcus aureus, MRSA
# [2] = test system: Enterococcus faecium; assay: MIC against contemporary clinical isolates; details: for % S (CLSI % susceptible) / MIC Range: n = 10, 50% VRE
# [3] = test system: Staphylococcus aureus Daptomycin^NS; assay: MIC against contemporary clinical isolates; details: Daptomycin^NS (n = 5)
# [4] = test system: Staphylococcus aureus MSSA; assay: MIC against contemporary clinical isolates; details: for % S (CLSI % susceptible) / MIC Range: MSSA (n = 20); for MIC50 / MIC90: Staphylococcus aureus, MSSA
# [5] = test system: Enterococcus faecalis; assay: MIC against contemporary clinical isolates; details: for % S (CLSI % susceptible) / MIC Range: n = 10, 50% VRE
# [6] = test system: Staphylococcus aureus Linezolid^R; assay: MIC against contemporary clinical isolates; details: Linezolid^R (n = 5)
# [7] = test system: Streptococcus pyogenes; assay: MIC against contemporary clinical isolates; details: for MIC50 / MIC90: Streptococcus pyogenes; for % S (CLSI % susceptible) / MIC Range: n = 10
# [8] = test system: Staphylococcus epidermidis; assay: MIC against contemporary clinical isolates; details: for MIC50 / MIC90: Staphylococcus epidermidis; for % S (CLSI % susceptible) / MIC Range: n = 20
# [9] = test system: Viridans Group Streptococci; assay: MIC against contemporary clinical isolates; details: n = 5
# [10] = test system: Staphylococcus aureus VISA; assay: MIC against contemporary clinical isolates; details: for MIC50 / MIC90: Staphylococcus aureus, VISA; for % S (CLSI % susceptible) / MIC Range: VISA (n = 10)
# [11] = test system: Streptococcus pneumoniae; assay: MIC against contemporary clinical isolates; details: for MIC50 / MIC90: Streptococcus pneumoniae, PRSP
# [12] = test system: Streptococcus agalactiae; assay: MIC against contemporary clinical isolates; details: for MIC50 / MIC90: Streptococcus agalactiae; for % S (CLSI % susceptible) / MIC Range: n = 10
# [13] = test system: Streptococcus pneumoniae ATCC 6301 (UNT012-2); assay: Immunocompetent mouse pneumonia model; format: in vivo
# Method: The compound of Formula (II) was then evaluated against Streptococcus pneumoniae in an immunocompetent mouse pneumonia model to determine the compound's potential to treat acute respiratory infections. Briefly, CD-1 mice were infected intranasally with Streptococcus pneumoniae ATCC 6301 (UNT012-2) (1.5×10^6 CFU/mouse). The compound was delivered intravenously at 24 and 36 hours post-infection, and at doses ranging from 0.5 to 10 mg/kg/dose. At 48 hours post infection, treated mice were euthanized, lungs aseptically removed and processed for CFU titers
# [14] = n = 20, 28.6% PSSP, 33.3% PISP, 38.1% PRSP
smiles,measurement,setting,value
CC(=O)NC[C@H]1CN(c2ccc(N3CCOCC3)c(F)c2)C(=O)O1 [Linezolid],% S (CLSI % susceptible),[1],100.0%
same,MIC Range,[1],2 to 4 µg/mL
same,MIC50,[1],2 µg/mL
same,MIC90,[1],4 µg/mL
same,MIC50,[2],2 µg/mL
same,MIC90,[2],2 µg/mL
same,% S (CLSI % susceptible),[2],100.0%
same,MIC Range,[2],1 to 2 µg/mL
same,% S (CLSI % susceptible),[3],80.0%
same,MIC Range,[3],1 to 32 µg/mL
same,% S (CLSI % susceptible),[4],100.0%
same,MIC Range,[4],2 to 4 µg/mL
same,MIC50,[4],2 µg/mL
same,MIC90,[4],4 µg/mL
same,MIC50,[5],2 µg/mL
same,MIC90,[5],2 µg/mL
same,% S (CLSI % susceptible),[5],100.0%
same,MIC Range,[5],1 to 2 µg/mL
same,% S (CLSI % susceptible),[6],0.0%
same,MIC50,[7],1 µg/mL
same,MIC90,[7],1 µg/mL
same,% S (CLSI % susceptible),[7],100.0%
same,MIC Range,[7],0.5-1^ μg/mL
same,MIC50,[8],2 µg/mL
same,MIC90,[8],2 µg/mL
same,% S (CLSI % susceptible),[8],100.0%
same,MIC Range,[8],1 to 4 µg/mL
same,% S (CLSI % susceptible),[9],100.0%
same,MIC Range,[9],0.5-1^ μg/mL
same,MIC50,[10],2 µg/mL
same,MIC90,[10],2 µg/mL
same,% S (CLSI % susceptible),[10],100.0%
same,MIC Range,[10],1 to 4 µg/mL
same,MIC50,[11],1 µg/mL
same,MIC90,[11],1 µg/mL
same,% S (CLSI % susceptible),[11]; [14],100.0%
same,MIC Range,[11]; [14],0.25 to 1 µg/mL
same,MIC50,[12],1 µg/mL
same,MIC90,[12],1 µg/mL
same,% S (CLSI % susceptible),[12],100.0%
same,MIC Range,[12],0.5-2^ μg/mL
CCCCCCCCCC(=O)N[C@@H](Cc1c[nH]c2ccccc12)C(=O)N[C@H](CC(N)=O)C(=O)N[C@@H](CC(=O)O)C(=O)N[C@@H]1C(=O)NCC(=O)N[C@@H](CCCN)C(=O)N[C@@H](CC(=O)O)C(=O)N[C@H](C)C(=O)N[C@@H](CC(=O)O)C(=O)NCC(=O)N[C@H](CO)C(=O)N[C@@H]([C@H](C)CC(=O)O)C(=O)N[C@@H](CC(=O)c2ccccc2N)C(=O)O[C@@H]1C [Daptomycin],% S (CLSI % susceptible),[1],100.0%
same,MIC Range,[1],0.12 to 0.25 µg/mL
same,MIC50,[1],0.25 µg/mL
same,MIC90,[1],0.25 µg/mL
same,MIC50,[2],0.5 µg/mL
same,MIC90,[2],1 µg/mL
same,% S (CLSI % susceptible),[2],100.0%
same,MIC Range,[2],0.5-1^ μg/mL
same,% S (CLSI % susceptible),[3],0.0%
same,MIC Range,[3],2 to 8 µg/mL
same,% S (CLSI % susceptible),[4],100.0%
same,MIC Range,[4],0.12 to 0.25 µg/mL
same,MIC50,[4],0.25 µg/mL
same,MIC90,[4],0.25 µg/mL
same,MIC50,[5],0.25 µg/mL
same,MIC90,[5],0.5 µg/mL
same,% S (CLSI % susceptible),[5],90.0%
same,MIC Range,[5],0.12 to 8 µg/mL
same,% S (CLSI % susceptible),[6],100.0%
same,MIC Range,[6],0.25 to 0.5 µg/mL
same,MIC50,[7],≤ 0.03 µg/mL
same,MIC90,[7],0.06 µg/mL
same,% S (CLSI % susceptible),[7],100.0%
same,MIC Range,[7],≦0.03-0.06^ μg/mL
same,MIC50,[8],0.12 µg/mL
same,MIC90,[8],0.25 µg/mL
same,% S (CLSI % susceptible),[8],100.0%
same,MIC Range,[8],0.06 to 0.25 µg/mL
same,% S (CLSI % susceptible),[9],100.0%
same,MIC Range,[9],0.06 to 0.25 µg/mL
same,MIC50,[10],0.5 µg/mL
same,MIC90,[10],1 µg/mL
same,% S (CLSI % susceptible),[10],100.0%
same,MIC Range,[10],0.25 to 1 µg/mL
same,MIC50,[11],≤ 0.03 µg/mL
same,MIC90,[11],≤ 0.03 µg/mL
same,MIC Range,[11]; [14],≦0.03-0.06^ μg/mL
same,MIC50,[12],0.12 µg/mL
same,MIC90,[12],0.12 µg/mL
same,% S (CLSI % susceptible),[12],100.0%
same,MIC Range,[12],0.06 to 0.25 µg/mL
CC1(C)S[C@@H]2[C@H](NC(=O)[C@H](N)c3ccc(O)cc3)C(=O)N2[C@H]1C(=O)O [Amoxicillin],Log10 change from 24 hrs,[13]; 10 mg/kg/dose,−3.98 Log10
same,Log10 change from 48 hrs,[13]; 10 mg/kg/dose,−5.83 Log10
same,Mean Log10 CFU,"[13]; 10 mg/kg/dose IV at 24 and 36 hours post-infection, lungs at 48 hours",2.78 Log10 CFU
